Laboratory results: BindingDB's records for doi:10.1021/jm9802158 (Upjohn, 1998)

Biological target: T1, Dimer of Gag-Pol polyprotein [489-587] (Human immunodeficiency virus 1, UniProt P04585)
T1 construct: 489-587
Test: Protease Inhibition Assay
Settings: pH 5; 22 °C
Excerpt: (§1) HIV-1 protease was purified and refolded from E. coli inclusion bodies. The substrate used spans the p17-p24 processing site (R-V-S-Q-N-Y-P-I-V-Q-N-K) and was derivatized with biotin and fluorescein isothiocyanate (FITC) at the amino and carboxy termini. In the presence of HIV-l protease, the substrate is rapidly cleaved into two parts. The biotinylated amino terminal fragment binds to the avidin beads while the FITC-containing carboxy1 terminal fragment is removed through the membrane. […] The bound fluorescence is obtained by processing on an IDEXX Screen Machine. Determination of Ki values with this assay requires analysis under conditions in which substrate concentration resides substantially below Km and the inhibitor concentrations greatly exceeds the Ki value and the enzyme concentration.

Compound | Ki [nM]
CCCC1(CCc2ccccc2)CC(=O)C(C(c2cccc(NS(=O)(=O)c3ccc(N)cn3)c2)C(C)(C)C)C(=O)O1 (stereo not given) [5-amino-N-(3-{1-[4-hydroxy-2-oxo-6-(2-phenylethyl)-6-propyl-5,6-dihydro-2H-pyran-3-yl]-2,2-dimethylpropyl}phenyl)pyridine-2-sulfonamide] | 0.2
CCCC1(CCc2ccccc2)CC(=O)C(C(CC)c2cccc(NS(=O)(=O)c3ccc(C#N)cn3)c2)C(=O)O1 (stereo not given) [5-cyano-N-(3-{1-[4-hydroxy-2-oxo-6-(2-phenylethyl)-6-propyl-5,6-dihydro-2H-pyran-3-yl]propyl}phenyl)pyridine-2-sulfonamide] | 0.1

Biological target: T2, Dimer of Gag-Pol polyprotein [489-587] (Human immunodeficiency virus 1, UniProt P12497)
T2 construct: 489-587
Test: Protease Inhibition Assay
Settings: pH 5; 22 °C
Excerpt: as §1

Compound | Ki [nM]
CCCC1(CCc2ccccc2)CC(=O)C(C(c2cccc(NS(=O)(=O)c3ccc(C#N)cc3)c2)C(C)(C)C)C(=O)O1 (stereo not given) [4-cyano-N-(3-{1-[4-hydroxy-2-oxo-6-(2-phenylethyl)-6-propyl-5,6-dihydro-2H-pyran-3-yl]-2,2-dimethylpropyl}phenyl)benzene-1-sulfonamide] | 12
CCCC1(CCc2ccccc2)CC(=O)C(C(CC)c2cccc(NS(=O)(=O)c3ccc(C#N)cc3)c2)C(=O)O1 (stereo not given) [4-cyano-N-(3-{1-[4-hydroxy-2-oxo-6-(2-phenylethyl)-6-propyl-5,6-dihydro-2H-pyran-3-yl]propyl}phenyl)benzene-1-sulfonamide] | 8.2
CCCC1(CCc2ccccc2)CC(=O)C(C(c2cccc(NS(=O)(=O)c3ccc(C#N)cn3)c2)C(C)(C)C)C(=O)O1 (stereo not given) [N-(3-[1-(5,6-Dihydro-4-hydroxy-2-oxo-6-phenethyl-6-propyl-2H-pyran-3-yl)-2,2-dimethylpropyl]phenyl)-5-cycano-2-pyridinesulfonamide] | 1.9
CCCC1(CCc2ccccc2)CC(=O)C(C(c2cccc(NS(=O)(=O)c3ccc(C(F)(F)F)cn3)c2)C(C)(C)C)C(=O)O1 (stereo not given) [N-(3-[1-(5,6-Dihydro-4-hydroxy-2-oxo-6-phenethyl-6-propyl-2H-pyran-3-yl)-2,2-dimethylpropyl]phenyl)-5-trifluoromethyl-2-pyridinesulfonamide] | 4.3
CCCC1(CCc2ccccc2)CC(=O)C(Cc2cccc(NS(=O)(=O)c3cn(C)cn3)c2)C(=O)O1 (stereo not given) [N-(3-[1-(5,6-Dihydro-4-hydroxy-2-oxo-6-phenethyl-6-propyl-2H-pyran-3-yl)methyl]phenyl)-1-methyl-1H-imidazole-4-sulfonamide] | 13
CCC(c1cccc(NS(=O)(=O)c2cn(C)cn2)c1)C1C(=O)CC(CCc2ccccc2)(CCc2ccccc2)OC1=O (stereo not given) [N-(3-{1-[4-hydroxy-2-oxo-6,6-bis(2-phenylethyl)-5,6-dihydro-2H-pyran-3-yl]propyl}phenyl)-1-methyl-1H-imidazole-4-sulfonamide] | 1
CCCC1(CCc2ccccc2)CC(=O)C(C(c2cccc(NS(=O)(=O)c3ccc([N+](=O)[O-])cn3)c2)C(C)(C)C)C(=O)O1 (stereo not given) [N-(3-{1-[4-hydroxy-2-oxo-6-(2-phenylethyl)-6-propyl-5,6-dihydro-2H-pyran-3-yl]-2,2-dimethylpropyl}phenyl)-5-nitropyridine-2-sulfonamide] | 2.3
CCCC1(CCc2ccccc2)CC(=O)C(C(CC)c2cccc(NS(=O)(=O)CCC)c2)C(=O)O1 (stereo not given) [N-(3-{1-[4-hydroxy-2-oxo-6-(2-phenylethyl)-6-propyl-5,6-dihydro-2H-pyran-3-yl]propyl}phenyl)propane-1-sulfonamide] | > 1000
CCC(c1cccc(NS(=O)(=O)c2cn(C)cn2)c1)C1C(=O)CC(CC(C)C)(CC(C)C)OC1=O (stereo not given) [N-(3-{1-[4-hydroxy-6,6-bis(2-methylpropyl)-2-oxo-5,6-dihydro-2H-pyran-3-yl]propyl}phenyl)-1-methyl-1H-imidazole-4-sulfonamide] | 3
CCC(c1cccc(NS(=O)(=O)c2cn(C)cn2)c1)C1C(=O)CC(CCC2CC2)(CCC2CC2)OC1=O (stereo not given) [N-(3-{1-[6,6-bis(2-cyclopropylethyl)-4-hydroxy-2-oxo-5,6-dihydro-2H-pyran-3-yl]propyl}phenyl)-1-methyl-1H-imidazole-4-sulfonamide] | 1.7
CCC(c1cccc(NS(=O)(=O)c2cn(C)cn2)c1)C1C(=O)CC2(OC1=O)C1CC3CC(C1)CC2C3 (stereo not given) [N-[3-(1-{4'-hydroxy-3',6'-dihydrospiro[adamantane-2,2'-pyran]-6'-one}propyl)phenyl]-1-methyl-1H-imidazole-4-sulfonamide] | 23
CCCC1(CCC)CC(=O)C(C(c2cccc(NS(=O)(=O)c3cn(C)cn3)c2)C2CC2)C(=O)O1 (stereo not given) [N-[3-[1-(5,6-Dihydro-4-hydroxy-2-oxo-6,6-dipropyl-2H-pyran-3-yl)cyclopropylmethyl]phenyl]-1-methyl-1H-imidazolesulfonamide] | 0.52
CCCC1(CCC)CC(=O)C(C(CC)c2cccc(NS(=O)(=O)c3cn(C)cn3)c2)C(=O)O1 (stereo not given) [N-[3-[1-(5,6-Dihydro-4-hydroxy-2-oxo-6,6-dipropyl-2H-pyran-3-yl)propyl]phenyl]-1-methyl-1H-imidazolesulfonamide] | 1.8
CCCC1(CCc2ccccc2)CC(=O)C(C(c2cccc(NS(=O)(=O)c3cn(C)cn3)c2)C2CC2)C(=O)O1 (stereo not given) [N-[3-[1-(5,6-Dihydro-4-hydroxy-2-oxo-6-phenethyl-6-propyl-2H-pyran-3-yl)cyclopropylmethyl]phenyl]-1-methyl-1H-imidazole-4-sulfonamide] | 0.71
CCCC1(CCC)CC(=O)C(C(c2cccc(NS(=O)(=O)c3cn(C)cn3)c2)C(C)(C)C)C(=O)O1 (stereo not given) [N-[3-{1-(5,6-Dihydro-4-hydroxy-2-oxo-6,6-dipropyl-2H-pyran-3-yl)-2,2-dimethylpropyl)phenyl]-1-methyl-1H-imidazole-4-sulfonamide] | 0.87
CCCC1(CCc2ccccc2)CC(=O)C(C(c2cccc(NS(=O)(=O)c3cn(C)cn3)c2)C(C)(C)C)C(=O)O1 (stereo not given) [N-[3-{1-(5,6-Dihydro-4-hydroxy-2-oxo-6-phenethyl-6-propyl-2H-pyran-3-yl)-2,2-dimethylpropyl)phenyl]-1-methyl-1H-imidazole-4-sulfonamide] | 1.2
CCC(c1cccc(NS(=O)(=O)c2cn(C)cn2)c1)C1C(=O)CC(COCCOCCOC)(COCCOCCOC)OC1=O (stereo not given) [N-[3-{1-(5,6-Dihydro-4-hydroxy-2-oxo--6,6-bis((2-(2-methoxyethoxy)ethoxy)methyl)-2H-pyran-3-yl)propyl}phenyl]-1-methyl-1H-imidazole-4-sulfonamide] | 28
CCCC1(CCc2ccc(F)cc2)CC(=O)C(C(CC)c2cccc(NS(=O)(=O)c3cn(C)cn3)c2)C(=O)O1 (stereo not given) [N-[3-{1-(5,6-Dihydro-4-hydroxy-2-oxo--6-(2-(4-fluorophenyl)ethyl)-6-propyl-2H-pyran-3-yl)propyl}phenyl]-1-methyl-1H-imidazole-4-sulfonamide] | 3
